Test system: primary human ovarian tumors (dissociated cells)
Assay: Tumor Chemosensitivity Assay (TCA): Compound B-2 with doxorubicin, primary ovarian tumors, viability after 6 days, Bliss
Format: cell-based
Design: Average Bliss score: scale not given here
Procedure: Specifically, one study described the combination of Compound B-2 and doxorubicin hydrochloride. In this study, a panel of primary human ovarian and endometrial tumors was dissociated and treated with Compound B-2 to determine the effectiveness of this selective DNA-PK inhibitor to enhance the activity of doxorubicin.
In both studies, cell viability was assessed after 6 days in culture. Statistical analysis of the combination matrix was performed to assess whether synergy, additivity, or antagonism of the combination treatments were observed.
Materials: Primary patient samples (See Tables 16 and 17, below) were excised from mice when they reached 500 mg to 1000 mg in size and processed immediately, or after overnight shipment. Tumors were serially passaged by subcutaneous implantation of 50 mg to 150 mg fragments into the flanks of immunocompromised (nude) mice. Tumors were used within the first 5 or 7 passages.
Tumor Chemosensitivity Assay (TCA): Primary tumor samples were grown and serially passaged in immunocompromised mice. Tumors were mechanically dissociated into small fragments (1 mm to 2 mm) with scalpels in phosphate buffered saline (PBS or RPMI) and centrifuged at 200×g for 5 minutes at room temperature in 50 mL centrifuge tubes. Samples were resuspended in 10 mL of cell dissociation reagent and enzymatically digested with mechanical agitation for 1 to 3 hours at 37° C., 5% CO2 to a single cell suspension. Ten mL of complete RPMI-1640 media was added to the cell mixture and pipetted up and down 4 to 5 times. The mixture was then passed through a 70 μm or 100 μm mesh strainer to remove undigested tumor. The filtrate was then centrifuged 200×g for 5 minutes at room temperature and resuspended in 20 mL complete RPMI-1640. This cell suspension was slowly layered onto 20 mL of room temperature Histopaque and centrifuged at 400×g for 15 minutes at room temperature without a brake. The interface was transferred to a new 50 mL centrifuge tube and 15 mL of complete RPMI-1640 was added. This suspension was centrifuged at 200×g at room temperature, and the resulting pellet was resuspended in 10 mL of complete PC-1 media, except for pancreatic tumors in which case Pancreatic Medium was used. Cells were diluted in Trypan blue, and viable cells that excluded the dye were counted. Only the larger, tumor cells were included in the cell count. Cells were diluted in complete PC-1 or Pancreatic media, as appropriate for the cells, and were plated at 15,000 to 20,000 cells per well in 100-135 μL in ultra-low attachment U-bottom plates.
Compound Addition: For these studies, a 10 mM stock of the DNA-PK inhibitor (Compound B-1 or Compound B-2) was made in DMSO and used to add to cells from most tumors with HP D300 Digital Dispenser (Tecan US, Morrisville, NC, USA), or diluted into the appropriate media (PC-1 or pancreatic media) as a 5-10× stock and added to cells (OVX001 and ENX001, 005). PC-1, pancreatic media, and chemotherapeutics were also added so that final well volume was 150 μL. Doxorubicin was made as DMSO stock of 1 or 10 mM and added to cells for most tumors with HP D300 Digital Dispenser, or diluted into PC-1 as 5-10× stock and added to cells (OVX001 and ENX001, 005). Cisplatin (cis-diammine platinum(II), dichloride) was prepared fresh to 10 mM in warm (60° C.) distilled water and diluted in PC-1 as a 5-10× stock. […] Different starting concentrations, dose ranges, and number of doses were used for each experiment based on the response data available at the time.
For doxorubicin hydrochloride experiments, combinations with Compound B-2 at all concentrations were run in triplicate. A 6×3 matrix was designed on each plate: 0.73 μM and 2.2 μM Compound B-2, or 0.37 μM and 4.4 μM Compound B-2 on some tumors where additional cells were available, plus no treatment control, in 3 columns each of 6 wells. Doxorubicin hydrochloride (plus ‘no treatment’ control) was added to 9 wells in rows of this plate. […]

## [2H]c1nc(C)nc([2H])c1-c1cc(NC[C@@H](C)c2cccc3c(C(=O)NC)ccnc23)ncn1 [Compound B-2]
11 ovarian tumors
  tumors that showed synergy or additivity: 100%
Four of 11 ovarian tumors
  tumors that showed strong synergy: 36%
Tumor CTG-0252 (Ovarian)
  Average Bliss score: 14
  Synergy/Additivity/Antagonism: Strongly Synergistic (greater than 10 are considered strongly synergistic)
Tumor CTG-0253 (Ovarian)
  Average Bliss score: 6
  Synergy/Additivity/Antagonism: Synergistic (greater than 5 are considered synergistic)
Tumor CTG-0258 (Ovarian)
  Average Bliss score: 9
  Synergy/Additivity/Antagonism: Synergistic (greater than 5 are considered synergistic)
Tumor CTG-0486 (Ovarian)
  Average Bliss score: 5
  Synergy/Additivity/Antagonism: Additive (Values between 5 and −5 are considered additive)
Tumor CTG-0791 (Ovarian)
  Average Bliss score: 14
  Synergy/Additivity/Antagonism: Strongly Synergistic (greater than 10 are considered strongly synergistic)
Tumor CTG-0947 (Ovarian)
  Average Bliss score: 10
  Synergy/Additivity/Antagonism: Synergistic (greater than 5 are considered synergistic)
Tumor CTG-0992 (Ovarian)
  Average Bliss score: 8
  Synergy/Additivity/Antagonism: Synergistic (greater than 5 are considered synergistic)
Tumor CTG-1166 (Ovarian)
  Average Bliss score: 8
  Synergy/Additivity/Antagonism: Synergistic (greater than 5 are considered synergistic)
Tumor CTG-1301 (Ovarian)
  Average Bliss score: 8
  Synergy/Additivity/Antagonism: Synergistic (greater than 5 are considered synergistic)
Tumor CTG-1423 (Ovarian)
  Average Bliss score: 12
  Synergy/Additivity/Antagonism: Strongly Synergistic (greater than 10 are considered strongly synergistic)
Tumor OVX001 (Ovarian)
  Average Bliss score: 11
  Synergy/Additivity/Antagonism: Strongly Synergistic (greater than 10 are considered strongly synergistic)
